System: MV-4-11 cells
Assay: Gene expression microarray analysis (Affymetrix PrimeView) and GSEA
Assay type: cell-based, human
Design: RFU PODN (11730768_x_at) / Fold change /veh PODN (11730768_x_at) / RFU LINC00158 (11744669_a_at) / Fold change /veh LINC00158 (11744669_a_at) / RFU DUSP10 (11751237_a_at) / Fold change /veh DUSP10 (11751237_a_at) / RFU ID3 (11757404_x_at) / Fold change /veh ID3 (11757404_x_at) / RFU PLEKHG5 (11737974_s_at) / Fold change /veh PLEKHG5 (11737974_s_at) / RFU LRRC4B (11730491_at) / Fold change /veh LRRC4B (11730491_at) / RFU GIMAP4 (11747438_a_at) / Fold change /veh GIMAP4 (11747438_a_at) / RFU KRT8 (11758183_x_at) / Fold change /veh KRT8 (11758183_x_at) / RFU CNN1 (11734310_a_at) / Fold change /veh CNN1 (11734310_a_at) / RFU VPS37D (11726825_at) / Fold change /veh VPS37D (11726825_at) / RFU C10orf10 (11716522_x_at) / Fold change /veh C10orf10 (11716522_x_at) / RFU KIR2DL2 /// KIR2DL4 /// KIR2DL5A /// KIR2DL5B /// KIR2DS1 /// KIR2DS2 /// KIR2DS3 /// KIR2DS4 /// KIR3DL3 /// KIR3DL3 /// KIR3DS1 (11738374_at) / Fold change /veh KIR2DL2 /// KIR2DL4 /// KIR2DL5A /// KIR2DL5B /// KIR2DS1 /// KIR2DS2 /// KIR2DS3 /// KIR2DS4 /// KIR3DL3 /// KIR3DL3 /// KIR3DS1 (11738374_at) / RFU C1QL1 (11718748_at) / Fold change /veh C1QL1 (11718748_at) / RFU TMPRSS4 (11747572_a_at) / Fold change /veh TMPRSS4 (11747572_a_at) / RFU HAMP (11756126_x_at) / Fold change /veh HAMP (11756126_x_at) / RFU RNFT2 (11725882_a_at) / Fold change /veh RNFT2 (11725882_a_at) / RFU NR4A2 (11747474_a_at) / Fold change /veh NR4A2 (11747474_a_at) / RFU ABCC12 (11746883_a_at) / Fold change /veh ABCC12 (11746883_a_at) / RFU TMEM136 (11760407_x_at) / Fold change /veh TMEM136 (11760407_x_at) / RFU CLDN22 /// WWC2 (11732394_at) / Fold change /veh CLDN22 /// WWC2 (11732394_at) / RFU HLA-DPB1 (11760878_x_at) / Fold change /veh HLA-DPB1 (11760878_x_at) / RFU SPINT1 (11716480_a_at) / Fold change /veh SPINT1 (11716480_a_at) / RFU GAP43 (11754022_s_at) / Fold change /veh GAP43 (11754022_s_at) / RFU A4GNT (11735810_at) / Fold change /veh A4GNT (11735810_at) / RFU PRB3 (11715151_x_at) / Fold change /veh PRB3 (11715151_x_at) / RFU TUBB4B (11761932_at) / Fold change /veh TUBB4B (11761932_at) / RFU CAPN14 (11732068_a_at) / Fold change /veh CAPN14 (11732068_a_at) / RFU TMCC2 (11721928_a_at) / Fold change /veh TMCC2 (11721928_a_at) / RFU IRGQ (11745062_a_at) / Fold change /veh IRGQ (11745062_a_at) / RFU FAM174B (11720279_a_at) / Fold change /veh FAM174B (11720279_a_at) / RFU TMPRSS4 (11748680_a_at) / Fold change /veh TMPRSS4 (11748680_a_at) / RFU FAM212B (11763350_a_at) / Fold change /veh FAM212B (11763350_a_at) / RFU PLEKHG5 (11743358_a_at) / Fold change /veh PLEKHG5 (11743358_a_at) / RFU ZSCAN30 (11745921_a_at) / Fold change /veh ZSCAN30 (11745921_a_at) / RFU CMKLR1 (11741424_a_at) / Fold change /veh CMKLR1 (11741424_a_at) / RFU LOC101060620 /// MAPK8IP1 (11723275_at) / Fold change /veh LOC101060620 /// MAPK8IP1 (11723275_at) / RFU SPTSSB (11747773_x_at) / Fold change /veh SPTSSB (11747773_x_at) / RFU PRSS12 (11739890_at) / Fold change /veh PRSS12 (11739890_at) / RFU BIN1 (11741810_x_at) / Fold change /veh BIN1 (11741810_x_at) / RFU WNT11 (11732464_a_at) / Fold change /veh WNT11 (11732464_a_at) / RFU C10orf10 (11716521_a_at) / Fold change /veh C10orf10 (11716521_a_at) / RFU C5orf56 (11738089_at) / Fold change /veh C5orf56 (11738089_at) / RFU CYB561 (11721691_x_at) / Fold change /veh CYB561 (11721691_x_at) / RFU ANKRD19P (11752326_a_at) / Fold change /veh ANKRD19P (11752326_a_at) / RFU OR2T12 /// OR2T33 /// OR2T8 (11738714_s_at) / Fold change /veh OR2T12 /// OR2T33 /// OR2T8 (11738714_s_at) / RFU VCAN (11748164_a_at) / Fold change /veh VCAN (11748164_a_at) / RFU JSRP1 (11732532_at) / Fold change /veh JSRP1 (11732532_at) / RFU KRTAP10-11 (11738290_x_at) / Fold change /veh KRTAP10-11 (11738290_x_at) / RFU MYO3A (11730013_a_at) / Fold change /veh MYO3A (11730013_a_at) / RFU EBF3 (11725865_a_at) / Fold change /veh EBF3 (11725865_a_at) / RFU CAMK2N1 (11719241_x_at) / Fold change /veh CAMK2N1 (11719241_x_at) / RFU C5orf56 (11738088_a_at) / Fold change /veh C5orf56 (11738088_a_at) / RFU OLFML3 (11715873_a_at) / Fold change /veh OLFML3 (11715873_a_at) / RFU LOC100653217 /// NTM (11731650_a_at) / Fold change /veh LOC100653217 /// NTM (11731650_a_at) / RFU MAPK11 (11762145_a_at) / Fold change /veh MAPK11 (11762145_a_at) / RFU FIZ1 (11724087_x_at) / Fold change /veh FIZ1 (11724087_x_at) / RFU OASL (11726364_x_at) / Fold change /veh OASL (11726364_x_at) / RFU SOX15 (11748057_x_at) / Fold change /veh SOX15 (11748057_x_at) / RFU CD79A (11719716_a_at) / Fold change /veh CD79A (11719716_a_at) / RFU HIST1H1D (11736915_at) / Fold change /veh HIST1H1D (11736915_at) / RFU CASKIN2 (11723855_a_at) / Fold change /veh CASKIN2 (11723855_a_at) / RFU LOC730098 (11760151_x_at) / Fold change /veh LOC730098 (11760151_x_at) / RFU OR4N2 (11742367_at) / Fold change /veh OR4N2 (11742367_at) / RFU PRRT2 (11749266_a_at) / Fold change /veh PRRT2 (11749266_a_at) / RFU SNX32 (11753110_a_at) / Fold change /veh SNX32 (11753110_a_at) / RFU CDHR5 (11726645_a_at) / Fold change /veh CDHR5 (11726645_a_at) / RFU RCAN1 (11760418_a_at) / Fold change /veh RCAN1 (11760418_a_at) / RFU FAM167A (11723789_a_at) / Fold change /veh FAM167A (11723789_a_at) / RFU FAM26E (11764081_at) / Fold change /veh FAM26E (11764081_at) / RFU ISYNA1 (11749810_s_at) / Fold change /veh ISYNA1 (11749810_s_at) / RFU ACY1 (11761880_at) / Fold change /veh ACY1 (11761880_at) / RFU 11764098_at / Fold change /veh 11764098_at / RFU SAMD14 (11745864_x_at) / Fold change /veh SAMD14 (11745864_x_at) / RFU NPB (11741838_a_at) / Fold change /veh NPB (11741838_a_at) / RFU TMPRSS6 (11731388_a_at) / Fold change /veh TMPRSS6 (11731388_a_at) / RFU KRTAP10-2 (11738614_at) / Fold change /veh KRTAP10-2 (11738614_at) / RFU ARHGAP8 /// PRR5-ARHGAP8 (11727945_x_at) / Fold change /veh ARHGAP8 /// PRR5-ARHGAP8 (11727945_x_at) / RFU KRTAP5-7 /// NADSYN1 (11734609_at) / Fold change /veh KRTAP5-7 /// NADSYN1 (11734609_at) / RFU RASL12 (11751679_a_at) / Fold change /veh RASL12 (11751679_a_at) / RFU CDKN2B (11736163_a_at) / Fold change /veh CDKN2B (11736163_a_at) / RFU PRF1 (11729649_at) / Fold change /veh PRF1 (11729649_at) / RFU, ZNF638 /// ZNF638-IT1 / Fold change vs veh, ZNF638 /// ZNF638-IT1 / RFU, PANK3 / Fold change vs veh, PANK3 / RFU, SH3YL1 / Fold change vs veh, SH3YL1 / RFU, ZEB2 / Fold change vs veh, ZEB2 / RFU, NRIP1 / Fold change vs veh, NRIP1 / RFU, PTTG1IP / Fold change vs veh, PTTG1IP / RFU, CAPN2 / Fold change vs veh, CAPN2 / RFU, MED14 / Fold change vs veh, MED14 / RFU, SNORA58 / Fold change vs veh, SNORA58 / RFU, C1orf63 / Fold change vs veh, C1orf63 / RFU, LRRFIP1 / Fold change vs veh, LRRFIP1 / RFU, NDUFAF7 / Fold change vs veh, NDUFAF7 / RFU, SLC12A2 / Fold change vs veh, SLC12A2 / RFU, IBTK / Fold change vs veh, IBTK / RFU, ESF1 / Fold change vs veh, ESF1 / Fold change vs veh, TMEM50B / RFU, TAOK1 / Fold change vs veh, TAOK1 / RFU, ACBD3 / Fold change vs veh, ACBD3 / RFU, TMA16 / Fold change vs veh, TMA16 / RFU, RWDD3 / Fold change vs veh, RWDD3 / RFU, BCAT1 / Fold change vs veh, BCAT1 / RFU, EDEM3 / Fold change vs veh, EDEM3 / RFU, TMEM33 / Fold change vs veh, TMEM33 / RFU, WDR75 / Fold change vs veh, WDR75 / RFU, AHCTF1 / Fold change vs veh, AHCTF1 / RFU, TFRC / Fold change vs veh, TFRC / RFU, ZDHHC17 / Fold change vs veh, ZDHHC17 / RFU, NOM1 / Fold change vs veh, NOM1 / RFU, ARL8B / Fold change vs veh, ARL8B / RFU, ZBTB11 / Fold change vs veh, ZBTB11 / RFU, TAMM41 / Fold change vs veh, TAMM41 / RFU, KIAA1704 /// LOC100996395 / Fold change vs veh, KIAA1704 /// LOC100996395 / RFU, ING1 / Fold change vs veh, ING1 / RFU, TRMT61B / Fold change vs veh, TRMT61B / RFU, FUBP3 / Fold change vs veh, FUBP3 / RFU, TP53 / Fold change vs veh, TP53 / RFU, TNKS2 / Fold change vs veh, TNKS2 / RFU, ZFP14 / Fold change vs veh, ZFP14 / RFU, ACTR2 / Fold change vs veh, ACTR2 / RFU, PPP3R1 / Fold change vs veh, PPP3R1 / RFU, PIK3R1 / Fold change vs veh, PIK3R1 / RFU, HNRNPA1 / Fold change vs veh, HNRNPA1 / RFU, RNF170 / Fold change vs veh, RNF170 / RFU, ZNF28 / Fold change vs veh, ZNF28 / RFU, RNGTT / Fold change vs veh, RNGTT / RFU, OGT / Fold change vs veh, OGT / RFU, BRD1 / Fold change vs veh, BRD1 / RFU, MARS / Fold change vs veh, MARS / RFU, ZNF655 / Fold change vs veh, ZNF655 / RFU, FAHD1 / Fold change vs veh, FAHD1 / RFU, BDP1 / Fold change vs veh, BDP1 / RFU, LRRCC1 / Fold change vs veh, LRRCC1 / RFU, ARID1A / Fold change vs veh, ARID1A / RFU, ZNF146 / Fold change vs veh, ZNF146 / RFU, ZNF330 / Fold change vs veh, ZNF330 / RFU, GPN3 / Fold change vs veh, GPN3 / RFU, C9orf123 / Fold change vs veh, C9orf123 / RFU, N4BP2L2 / Fold change vs veh, N4BP2L2 / RFU, ARFIP1 / Fold change vs veh, ARFIP1 / RFU, FAM179B / Fold change vs veh, FAM179B / RFU, BCL10 / Fold change vs veh, BCL10 / RFU, UHRF1BP1L / Fold change vs veh, UHRF1BP1L / RFU, BET1 / Fold change vs veh, BET1 / RFU, CNOT2 / Fold change vs veh, CNOT2 / RFU, ZNF268 / Fold change vs veh, ZNF268 / Fold change vs veh, ZNF507 / RFU, DGCR2 / Fold change vs veh, DGCR2 / RFU, WDSUB1 / Fold change vs veh, WDSUB1 / Fold change vs veh, HSP90B1 /// MIR3652 / RFU, ADSS / Fold change vs veh, ADSS / RFU, GK / Fold change vs veh, GK / RFU, ZNF148 / Fold change vs veh, ZNF148 / RFU, TAF9 / Fold change vs veh, TAF9 / RFU, SLC1A5 / Fold change vs veh, SLC1A5 / RFU, SLMO2 / Fold change vs veh, SLMO2 / RFU, ABCC4 / Fold change vs veh, ABCC4 / RFU, LOC101060439 /// RAP1B / Fold change vs veh, LOC101060439 /// RAP1B / RFU, RFX7 / Fold change vs veh, RFX7 / RFU, GTPBP10 / Fold change vs veh, GTPBP10 / RFU, CNEP1R1 / Fold change vs veh, CNEP1R1 / RFU, BIVM-ERCC5 /// ERCC5 / Fold change vs veh, BIVM-ERCC5 /// ERCC5 / RFU, ILF3 / Fold change vs veh, ILF3 / RFU 11762660_at / Fold change /veh 11762660_at / RFU VCAN (11757783_s_at) / Fold change /veh VCAN (11757783_s_at) / RFU DDX43 (11728927_at) / Fold change /veh DDX43 (11728927_at) / RFU KRT8 (11758188_x_at) / Fold change /veh KRT8 (11758188_x_at) / RFU NKD1 (11759106_at) / Fold change /veh NKD1 (11759106_at) / RFU SRD5A1 (11742802_a_at) / Fold change /veh SRD5A1 (11742802_a_at) / RFU TPSAB1 /// TPSB2 (11721975_s_at) / Fold change /veh TPSAB1 /// TPSB2 (11721975_s_at) / RFU GSTM3 (11746129_a_at) / Fold change /veh GSTM3 (11746129_a_at) / RFU IL23R (11737362_x_at) / Fold change /veh IL23R (11737362_x_at) / RFU TMEM51 (11727254_a_at) / Fold change /veh TMEM51 (11727254_a_at) / RFU PIWIL2 (11732686_x_at) / Fold change /veh PIWIL2 (11732686_x_at) / RFU ORM1 (11744905_x_at) / Fold change /veh ORM1 (11744905_x_at) / RFU CCDC152 (11743942_at) / Fold change /veh CCDC152 (11743942_at) / RFU ECM1 (11717891_a_at) / Fold change /veh ECM1 (11717891_a_at) / RFU IL23R (11748794_a_at) / Fold change /veh IL23R (11748794_a_at) / RFU TNFAIP8L3 (11732012_x_at) / Fold change /veh TNFAIP8L3 (11732012_x_at) / RFU MBOAT4 (11741988_at) / Fold change /veh MBOAT4 (11741988_at) / RFU 11764193_at / Fold change /veh 11764193_at / RFU TMEM53 (11763286_at) / Fold change /veh TMEM53 (11763286_at) / RFU MAGEB2 (11727129_at) / Fold change /veh MAGEB2 (11727129_at) / RFU TMEM200A (11744735_a_at) / Fold change /veh TMEM200A (11744735_a_at) / RFU CCDC152 (11751479_a_at) / Fold change /veh CCDC152 (11751479_a_at) / RFU FAM211A (11726209_a_at) / Fold change /veh FAM211A (11726209_a_at) / RFU RGS16 (11746705_a_at) / Fold change /veh RGS16 (11746705_a_at) / RFU VCAN (11755009_s_at) / Fold change /veh VCAN (11755009_s_at) / RFU RHOB (11743442_s_at) / Fold change /veh RHOB (11743442_s_at) / RFU RGS16 (11720943_a_at) / Fold change /veh RGS16 (11720943_a_at) / RFU RGS16 (11720944_at) / Fold change /veh RGS16 (11720944_at) / RFU, VPS4B / Fold change vs veh, VPS4B / RFU, CREB1 / Fold change vs veh, CREB1 / RFU, DNAJC13 / Fold change vs veh, DNAJC13 / RFU, GNAQ / Fold change vs veh, GNAQ / RFU, CDK5R1 / Fold change vs veh, CDK5R1 / RFU, ZRANB3 / Fold change vs veh, ZRANB3 / RFU, CUL4A / Fold change vs veh, CUL4A / RFU, CCNY / Fold change vs veh, CCNY / RFU, UFL1 / Fold change vs veh, UFL1 / RFU, COG3 / Fold change vs veh, COG3 / RFU, DIAPH2 / Fold change vs veh, DIAPH2 / RFU, SKA2 / Fold change vs veh, SKA2 / RFU, AFF3 / Fold change vs veh, AFF3 / RFU, LMF1 / Fold change vs veh, LMF1 / RFU, IPO11 / Fold change vs veh, IPO11 / RFU, DFFB / Fold change vs veh, DFFB / RFU, FOXP1 / Fold change vs veh, FOXP1 / RFU, CARD8 / Fold change vs veh, CARD8 / RFU, STRN3 / Fold change vs veh, STRN3 / RFU, ADK / Fold change vs veh, ADK / RFU, RASSF2 / Fold change vs veh, RASSF2 / RFU, WIPF1 / Fold change vs veh, WIPF1 / RFU, LARP1B / Fold change vs veh, LARP1B / RFU, RASA1 / Fold change vs veh, RASA1 / RFU, RB1 / Fold change vs veh, RB1 / RFU, PPFIA1 / Fold change vs veh, PPFIA1 / RFU, MAT2A / Fold change vs veh, MAT2A / RFU, CCT5 / Fold change vs veh, CCT5 / RFU, WDR92 / Fold change vs veh, WDR92 / RFU, CUX1 / Fold change vs veh, CUX1 / RFU, TTC7A / Fold change vs veh, TTC7A / RFU, TMEM135 / Fold change vs veh, TMEM135 / RFU, DEPTOR / Fold change vs veh, DEPTOR / RFU, CPM / Fold change vs veh, CPM / RFU, DNAJB6 / Fold change vs veh, DNAJB6 / RFU, CACNA2D3 / Fold change vs veh, CACNA2D3 / RFU, DTX4 / Fold change vs veh, DTX4 / RFU, TFCP2 / Fold change vs veh, TFCP2 / RFU, GMCL1 /// GMCL1P1 / Fold change vs veh, GMCL1 /// GMCL1P1 / RFU, AEBP2 / Fold change vs veh, AEBP2 / RFU, SNHG1 /// SNORD22 /// SNORD25 /// SNORD26 /// SNORD27 /// SNORD28 /// SNORD29 /// SNORD31 / Fold change vs veh, SNHG1 /// SNORD22 /// SNORD25 /// SNORD26 /// SNORD27 /// SNORD28 /// SNORD29 /// SNORD31 / Fold change (Aza/veh), C12orf56 (ProbeSet 11735607_a_at) / Fold change (ACY-1035/veh), C12orf56 (ProbeSet 11735607_a_at) / Fold change (Aza/veh), FGFR1OP (ProbeSet 11751329_s_at) / Fold change (ACY-1035/veh), FGFR1OP (ProbeSet 11751329_s_at) / Fold change (Aza/veh), VPS36 (ProbeSet 11739960_a_at) / Fold change (ACY-1035/veh), VPS36 (ProbeSet 11739960_a_at) / RFU SYPL1 (11715823_x_at) / Fold change /veh SYPL1 (11715823_x_at) / RFU IGFBP7 (11715501_s_at) / Fold change /veh IGFBP7 (11715501_s_at) / RFU REEP3 (11722064_at) / Fold change /veh REEP3 (11722064_at) / RFU IGLL1 (11728026_x_at) / Fold change /veh IGLL1 (11728026_x_at): dose or concentration left out as unconfirmed
Settings: MV-4-11 cells, 48 hours

## Nc1ncn([C@@H]2O[C@H](CO)[C@@H](O)[C@H]2O)c(=O)n1 [azacitidine]
  RFU ZSCAN30 (11745921_a_at): 8.95 RFU

Reference: PMC5218480 (PLoS ONE, 2017)
